# Values joined by “and” are separate entries in the source; they are usually repeats but may differ in a detail not shown here. Equal entries are not always repeated.
# Assays:
# [1] = Single dose oral pharmacokinetics study in male Sprague Dawley rats; type: in vivo, Rat; settings: for Plasma Concentration of Menaquinone-7, Mean (comparative table): G1: Menaquinone-7 oral; for Plasma Concentration of Menaquinone-7, Mean / Plasma Concentration of Menaquinone-7, individual animals: fasted
# Protocol: Male Sprague Dawley rats aged 8-10 weeks and weighing around 202-223 grams are used for in vivo testing. Animals are fasted overnight with free access to water. Animals are split into 4 groups G1 to G4, each group containing 3 rats. To determine the bioavailability, the test items are separately dissolved in corn oil to obtain homogenous formulations. Animals are administered with test items by oral gavage, animals of G1 received 1088 μg, G2 received 1073 μg, G3 and G4 received 1000 μg per kg body weight dose of compound Ia.1, m=9, n=7 (G1), of compound Ia.1, m=9, n=9 (G2), menaquinone-7 (G3) and menaquinone-9 (G4) respectively. The doses of Ia.1 (n=7) (G1), of Ia.1 (n=9) were adjusted for the menaquinol content. Blood samples are collected at various time points during the next 48 hours post dose.
# Blood samples were collected and transferred to tubes containing K2EDTA and immediately placed on ice for plasma preparations. Plasma was prepared by centrifugation at 3500 g for 10 min, aliquots are frozen at −80° C. until analysis. Quantification of analyte in plasma is determined by LC-MS-MS analysis. Plasma PK parameters are calculated using WinNonlin software.
# Approximately 5 mg of Menaquinone-7 was weighed and transferred to a graduated tube. Then 10 mL of sunflower oil was added and vortex mixed thoroughly until the test item is completely dissolved. The formulation was prepared in dark room under monochromatic light. The final strength of the formulation was 500 μg/mL. The formulation was prepared fresh before administration. […]
# [2] = as above; type: in vivo, Rat; settings: for Plasma Concentration of Menaquinone-7, Mean (comparative table): G1: Menaquinone-7 oral
# [3] = Clinical observations in the single dose oral pharmacokinetics study; type: in vivo, Rat; settings: oral 1000 μg per kg body weight, till 48 h post dose
# [4] = test system: caspase-3; settings: at a concentration of 10 mcmol/L; cited from earlier work
# [5] = Menaquinone-7 oral 1000 μg/kg b.w., sunflower oil
# [6] = Menaquinone-7 oral 1000 μg/kg b.w., sunflower oil, N 6
# [7] = Menaquinone-7 oral 1000 μg/kg b.w., sunflower oil, time 0.00 h
# [8] = Menaquinone-7 oral 1000 μg/kg b.w., sunflower oil, time 0.50 h
# [9] = Menaquinone-7 oral 1000 μg/kg b.w., sunflower oil, time 1.00 h
# [10] = Menaquinone-7 oral 1000 μg/kg b.w., sunflower oil, time 2.00 h
# [11] = Menaquinone-7 oral 1000 μg/kg b.w., sunflower oil, time 4.00 h
# [12] = Menaquinone-7 oral 1000 μg/kg b.w., sunflower oil, time 6.00 h
# [13] = Menaquinone-7 oral 1000 μg/kg b.w., sunflower oil, time 8.00 h
# [14] = Menaquinone-7 oral 1000 μg/kg b.w., sunflower oil, time 24.00 h
# [15] = Menaquinone-7 oral 1000 μg/kg b.w., sunflower oil, time 48.00 h
molecule,measurement,setting,value
CC(C)=CCC/C(C)=C/CC/C(C)=C/CC/C(C)=C/CC/C(C)=C/CC/C(C)=C/CC/C(C)=C/CC1=C(C)C(=O)c2ccccc2C1=O [Menaquinone-7],"Plasma Concentration of Menaquinone-7, Mean (comparative table)",[1]; Time 0.00 h,0 µg/mL
same,"Plasma Concentration of Menaquinone-7, Mean (comparative table)",[1]; Time 0.50 h,0.003 µg/mL
same,"Plasma Concentration of Menaquinone-7, Mean (comparative table)",[1]; Time 1.00 h,0.011 µg/mL
same,"Plasma Concentration of Menaquinone-7, Mean (comparative table)",[1]; Time 2.00 h,0.015 µg/mL
same,"Plasma Concentration of Menaquinone-7, Mean (comparative table)",[1]; Time 4.00 h,0.014 µg/mL
same,"Plasma Concentration of Menaquinone-7, Mean (comparative table)",[1]; Time 6.00 h,0.01 µg/mL
same,"Plasma Concentration of Menaquinone-7, Mean (comparative table)",[1]; Time 8.00 h,0.006 µg/mL
same,"Plasma Concentration of Menaquinone-7, Mean (comparative table)",[1]; Time 48.00 h,0.002 µg/mL
same,"AUClast of Menaquinone-7 in plasma, individual animals",[1]; [5],0.35216 µg·h/mL and 0.32074 µg·h/mL and 0.16619 µg·h/mL and 0.3395 µg·h/mL and 0.21172 µg·h/mL and 0.28628 µg·h/mL
same,"Cmax of Menaquinone-7 in plasma, individual animals",[1]; [5],0.01984 µg/mL and 0.01325 µg/mL and 0.02487 µg/mL and 0.02302 µg/mL and 0.02347 µg/mL and 0.0144 µg/mL
same,"Half life of Menaquinone-7 in plasma, individual animals",[1]; [5],29.15 h and 30.91 h and 9.47 h and 21.96 h and 12.17 h and 35.05 h
same,"MRTlast of Menaquinone-7 in plasma, individual animals",[1]; [5],19.94 h and 20.91 h and 8.55 h and 14.68 h and 9.02 h and 20.28 h
same,"AUClast of Menaquinone-7 in plasma, Mean",[1]; [6],0.279428 µg·h/mL and 0.27943 ± 0.07491 µg·h/mL
same,"Half life of Menaquinone-7 in plasma, Mean",[1]; [6],23.118 h and 23.12 ± 10.46 h
same,"MRTlast of Menaquinone-7 in plasma, Mean",[1]; [6],15.562 h and 15.56 ± 5.71 h
same,"Tmax of Menaquinone-7 in plasma, Mean",[1]; [6],5.000 h and 5.00 ± 2.10 h
same,"Plasma Concentration of Menaquinone-7, Mean",[1]; [7],0 µg/mL
same,"Plasma Concentration of Menaquinone-7, individual animals",[1]; [7],0.00 ng/mL
same,"Plasma Concentration of Menaquinone-7, Mean",[1]; [8],0 µg/mL
same,"Plasma Concentration of Menaquinone-7, individual animals",[1]; [8],0.00 ng/mL
same,"Plasma Concentration of Menaquinone-7, Mean",[1]; [9],0.00323 µg/mL
same,"Plasma Concentration of Menaquinone-7, individual animals",[1]; [9],0.00 ng/mL (2×) and 3.56 ng/mL and 5.64 ng/mL and 2.91 ng/mL and 7.26 ng/mL
same,"Plasma Concentration of Menaquinone-7, Mean",[1]; [10],0.01183 µg/mL
same,"Plasma Concentration of Menaquinone-7, individual animals",[1]; [10],3.21 ng/mL and 3.69 ng/mL and 9.07 ng/mL and 22.74 ng/mL and 17.91 ng/mL and 14.40 ng/mL
same,"Plasma Concentration of Menaquinone-7, Mean",[1]; [11],0.01564 µg/mL
same,"Plasma Concentration of Menaquinone-7, individual animals",[1]; [11],11.45 ng/mL and 7.00 ng/mL and 24.87 ng/mL and 154.39* ng/mL and 23.47 ng/mL and 11.40 ng/mL
same,"Plasma Concentration of Menaquinone-7, Mean",[1]; [12],0.01462 µg/mL
same,"Plasma Concentration of Menaquinone-7, individual animals",[1]; [12],19.84 ng/mL and 5.53 ng/mL and 13.11 ng/mL and 23.02 ng/mL and 15.09 ng/mL and 11.15 ng/mL
same,"Plasma Concentration of Menaquinone-7, Mean",[1]; [13],0.01035 µg/mL
same,"Plasma Concentration of Menaquinone-7, individual animals",[1]; [13],11.92 ng/mL and 13.25 ng/mL and 8.18 ng/mL and 8.40 ng/mL and 10.89 ng/mL and 9.43 ng/mL
same,"Plasma Concentration of Menaquinone-7, individual animals","[1]; Menaquinone-7 oral 1000 μg/kg b.w., sunflower oil, time 12.00 h",7.05 ng/mL and 5.90 ng/mL and 4.26 ng/mL and 10.00 ng/mL and 5.48 ng/mL and 4.87 ng/mL
same,"Plasma Concentration of Menaquinone-7, Mean",[1]; [14],0.0057 µg/mL
same,"Plasma Concentration of Menaquinone-7, individual animals",[1]; [14],8.16 ng/mL and 9.12 ng/mL and 3.00 ng/mL and 3.96 ng/mL and 4.84 ng/mL and 5.12 ng/mL
same,"Plasma Concentration of Menaquinone-7, Mean",[1]; [15],0.00236 µg/mL
same,"Plasma Concentration of Menaquinone-7, individual animals",[1]; [15],3.81 ng/mL and 3.03 ng/mL and 0.00 ng/mL (2×) and 2.74 ng/mL and 4.56 ng/mL
same,plasma exposure of Menaquinone-7,"[1]; after Menaquinone-7 administration, 1000 μg/kg body weight oral, in ng·h/mL",279.43±74.91
same,"Plasma Concentration of Menaquinone-7, Mean (comparative table)",[2]; Time 0.25 h,0 µg/mL
same,"Plasma Concentration of Menaquinone-7, Mean (comparative table)",[2]; Time 24.00 h,0.005 µg/mL
same,"Tmax of Menaquinone-7 in plasma, individual animals",[2]; [5],6 h and 8 h and 4 h and 2 h
same,"Cmax of Menaquinone-7 in plasma, Mean",[2]; [6],0.019 µg/mL and 0.019808 µg/mL and 0.01981 ± 0.00493 µg/mL
same,Clinical Observations,[3],Rats showed no adverse clinical signs of toxicity
vitamin K2 [VK2],decrease of the activity of caspase-3,[4],2.5 fold

# Reference: patent US12514871B2, “Pegylated menaquinol compositions and methods of treatment” (Epizon Pharma, Inc., priority 2022, dated 2026)
